Measured values: publication PMC3914206

Key:
panel of 442 kinases [1] = molecular target: T1, panel of 442 kinases (Homo sapiens, UniProt Q99755); assay type: binding; conditions: Compound Concentration 10 µM
T1 construct: purchased KINOMEscan
Source text: (§1) We assessed the selectivity of members of this scaffold using the KINOMEscan methodology across a near comprehensive panel of 442 kinases [[18,27]].

panel of 442 kinases [2] = molecular target: T2, panel of 442 kinases (Homo sapiens, UniProt Q6P3R8); assay type: binding; conditions: Compound Concentration 10 µM
T2 construct: purchased KINOMEscan
T2 sequence (Q6P3R8 1-708): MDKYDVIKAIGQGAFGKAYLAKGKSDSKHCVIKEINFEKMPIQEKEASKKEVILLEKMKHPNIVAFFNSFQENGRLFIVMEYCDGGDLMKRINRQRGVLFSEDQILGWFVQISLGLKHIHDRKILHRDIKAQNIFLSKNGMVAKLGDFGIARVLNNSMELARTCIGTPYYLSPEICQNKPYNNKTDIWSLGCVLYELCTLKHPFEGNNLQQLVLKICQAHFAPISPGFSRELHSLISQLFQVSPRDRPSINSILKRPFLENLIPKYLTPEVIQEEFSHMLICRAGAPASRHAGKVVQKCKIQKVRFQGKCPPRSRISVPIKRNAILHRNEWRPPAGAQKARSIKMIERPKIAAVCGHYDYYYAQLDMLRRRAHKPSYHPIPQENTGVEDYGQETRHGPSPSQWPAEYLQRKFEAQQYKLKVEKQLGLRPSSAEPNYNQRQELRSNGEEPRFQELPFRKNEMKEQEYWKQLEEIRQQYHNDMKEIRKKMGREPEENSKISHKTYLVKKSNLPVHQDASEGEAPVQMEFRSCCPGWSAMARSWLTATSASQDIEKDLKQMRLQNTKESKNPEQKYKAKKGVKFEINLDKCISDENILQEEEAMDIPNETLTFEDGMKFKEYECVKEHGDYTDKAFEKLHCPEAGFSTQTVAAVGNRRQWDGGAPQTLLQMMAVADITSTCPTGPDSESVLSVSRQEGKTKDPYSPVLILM
Source text: as §1

T1 sequence (Q99755 whole entry): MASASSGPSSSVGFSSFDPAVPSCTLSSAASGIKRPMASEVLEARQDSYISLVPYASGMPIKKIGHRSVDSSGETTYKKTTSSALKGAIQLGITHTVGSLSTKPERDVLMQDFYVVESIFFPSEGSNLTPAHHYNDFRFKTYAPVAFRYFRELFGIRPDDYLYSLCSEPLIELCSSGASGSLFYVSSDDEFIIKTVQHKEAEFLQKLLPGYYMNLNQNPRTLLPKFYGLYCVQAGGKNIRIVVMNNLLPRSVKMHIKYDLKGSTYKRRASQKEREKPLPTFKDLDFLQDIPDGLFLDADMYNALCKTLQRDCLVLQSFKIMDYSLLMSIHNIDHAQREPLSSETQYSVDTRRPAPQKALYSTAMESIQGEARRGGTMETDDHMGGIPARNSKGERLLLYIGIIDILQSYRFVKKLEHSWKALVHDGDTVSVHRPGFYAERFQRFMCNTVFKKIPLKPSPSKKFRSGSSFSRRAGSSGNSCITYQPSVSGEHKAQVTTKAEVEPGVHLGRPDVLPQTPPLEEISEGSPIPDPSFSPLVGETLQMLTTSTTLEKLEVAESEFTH

COc1cc(C(=O)N2CCC(N3CCN(C)CC3)CC2)ccc1Nc1ncc2c(n1)N(C)c1ccccc1C(=O)N2C [15 (LRRK2-IN-1)]
KINOMEscan: PIP5K1A (panel of 442 kinases [1]): 90
KINOMEscan: NEK5 (panel of 442 kinases [2]): 100

COc1cc(C(=O)N2CCC(N3CCN(C)CC3)CC2)ccc1Nc1ncc2c(n1)N1CCc3cccc(c31)C(=O)N2C [Compound 24]
KINOMEscan: NEK5 (panel of 442 kinases [2]): 57

COc1cc(C(=O)N2CCC(N3CCN(C)CC3)CC2)ccc1Nc1ncc2c(n1)N(C1CCCC1)c1ccccc1C(=O)N2C [Compound 25, 11-cyclopentyl-2-((2-methoxy-4-(4-(4-methylpiperazin-1-yl)piperidine-1-carbonyl)phenyl)amino)-5-methyl-5H-benzo[e]pyrimido[5,4-b][1,4]diazepin-6(11H)-one]
KINOMEscan: PIP5K1A (panel of 442 kinases [1]): 100
KINOMEscan: NEK5 (panel of 442 kinases [2]): 100

CCOc1cc(C(=O)N2CCC(N3CCN(C)CC3)CC2)ccc1Nc1ncc2c(n1)N(C1CCCC1)c1ccccc1C(=O)N2C [Compound 26]
KINOMEscan: PIP5K1A (panel of 442 kinases [1]): 78
KINOMEscan: NEK5 (panel of 442 kinases [2]): 100
